Measurements published in patent publication US8053583B2, “Anti-cancer compound and manufacturing method thereof” (National Defense Medical Center, priority 2008, dated 2011).

Key:
[1] = tested on: GBM 8401 (human brain glioblastoma) cells; test: MTT colorimetric assay, GBM 8401 cells; conditions: conc. 10 μM; 46 hours with drug, then 2 hours MTT; ratio to control group without drug
Excerpt: (§1) MTT (tetrazole) assay used to determine tumor viability is based on measurement of the activity of dehydrogenase to determine cell growth conditions. In live cells, dehydrogenase in active mitochondria converts yellow MTT [3-(4,5-dimethylthiazol-2-yl)-2,5-diphenyltetra zolium bromide] into purple formazan on the reductive cleavage of its tetrazolium ring. The formazan crystal is examined under the microscope. While the mitochondria in dead cells are without active dehydrogenase, no crystal is generated and the color remains yellow. After adding MTT into cell cultures and reacting for 2 hours, the amount of generated formazan precipitate is proportional to total amount of dehydrogenase. Removing the culture medium, add DMSO to dissolve the purple formazan precipitate. Then measure the absorbance of the precipitate by is measured by the spectrophotometer at 560/670 nm so as to learn inhibition effect of drugs acted on normal cells and tumor cells.
(§2) GBM 8401, GBM 8901 (human brain glioblastoma) and SVG p12 (human brain astroglia)cells line are selected to be used in 96 well petri dishes. Each well is filled into the same amount of cells-about 5000 cells per well. After being cultured for 24 hours and cells anchor/attach, the 96 wells are divided into two groups-an experimental group and a control group containing no samples. The samples are diluted into 10 μg/mL by culture medium. Take 200 μL of each sample and add into the experimental group and the control group is added with 200 μL culture medium without samples. After 46 hours of culture, each well is added with 10 μL MTT solution, incubate cells at 37° C., 5% CO2 for 2 hours.
(§3) Then each well is added with 100 μL, dissolving formazan. Shaking for 10 minutes and measure the absorbance at 560/670 nm of the sample by the spectrometer. The data of the experimental group is divided by the data of the control group to get the estimated cell viability.
(§4) Three cell lines-GBM 8401, GBM 8901, SVG p12 (normal) are used in cytotoxicity tests of 1,8-bis-substituted amidoanthraquinone. After reacting with the drug for 46 hours, the cells are reacted with certain amount of MTT solution. After 2 hours, DMSO is used to dissolve formazan and O.D. (optical density) at 560/670 nm is measured. Then calculate the radios of the experimental groups (with drugs) to the control groups (without drugs).

[2] = tested on: GBM 8901 (human brain glioblastoma) cells; test: MTT colorimetric assay, GBM 8901 cells; conditions: 46 hours with drug, then 2 hours MTT, ratio to control group without drug
Excerpt: as §1, §2, §3, §4

[3] = tested on: SVG p12 (human brain astroglia) cells; test: MTT colorimetric assay, normal SVG p12 cells; conditions: conc. 10 μM, 46 hours with drug, then 2 hours MTT, ratio to control group without drug
Excerpt: as §1, §2, §3, §4

Structure (SMILES) | Cell viability (%) GBM 8401 [1] | Cell viability (%) GBM 8901 ([2]; conc. 10 μM) | Cell viability (%) SVG p12 [3] | viability at 10 µM ([2]; Homo sapiens, read-out: Cell viability (%) GBM 8901, conc. 10 μM)
COC(=O)[C@H](NCC(=O)Nc1cccc2c1C(=O)c1c(NC(=O)CN[C@@H](C(=O)OC)C(C)C)cccc1C2=O)C(C)C [Compound 3e, (D)-1,8-Bis[2-(valinemethyl ester)acetamido]anthraquinone] | 153 ± 32% | 88 ± 10% | 138 ± 10% | –
COC(=O)[C@H](C)NCC(=O)Nc1cccc2c1C(=O)c1c(NC(=O)CN[C@H](C)C(=O)OC)cccc1C2=O [Compound 3h, (L)-1,8-Bis[2-(alalinemethyl ester)acetamido]anthraquinone] | 158 ± 3% | – | 128 ± 34% | 100 ± 24%
